Source: patent EP0359821A1, “METHOD OF STERILIZING PLANT ANTHERS” (priority 1988, dated 1989)
Read-outs that look alike come from different tables or passages of the source.

Experiments:
[1] = system: Diploider Roggen Sorte Chulpan; experiment: Field trial of gametocidal activity, diploid rye Chulpan; assay type: in vivo; details: single compounds, 1% aqueous emulsion, 10 kg/ha; for Anzahl von Körnern der Ähre bei freier Bestäubung / Anzahl von Körnern der Ähre im Isolator / percent sterility at 10000 g/ha / pest or weed control at 10000 g/ha: V. or VI. period; for percent sterility at 10000 g/ha: read-out: Prozentsatz der Sterilität; for pest or weed control at 10000 g/ha: read-out: Prozentsatz der Sterilität, Chulpan
Text: Bei Weizen und Tritikale werden Einzelisolatoren verwendet.
Pflanzen von diploidem Roggen Sorte Chulpan werden in der V. oder VI.
Der Verbrauch an Sterilisationsmitteln beträgt 10 kg/ha.

[2] = system: Winterweizens Sorte Mironovskaya 808; experiment: Field trial of gametocidal activity (anther sterilisation), winter wheat; assay type: in vivo, Weizen; details: 2% aqueous emulsion, 20 kg/ha; for Anzahl von Körnern der Ähre bei freier Bestäubung / Anzahl von Körnern der Ähre im Isolator / pest or weed control at 20000 g/ha / percent sterility at 20000 g/ha: V. or VI. period of organogenesis; for pest or weed control at 20000 g/ha / percent sterility at 20000 g/ha: read-out: Prozentsatz der Sterilität; for response vs control in vivo at 20000 g/ha: control = 100, read-out: Prozentsatz des Ansetzens bei freier Bestäubung
[3] = system: Tetraploider Roggen Sorte Belta; experiment: Field trial of gametocidal activity, tetraploid rye Belta; assay type: in vivo; details: 1% aqueous emulsion, 10 kg/ha; for response vs control in vivo at 10000 g/ha: control = 100, read-out: Prozentsatz des Ansetzens bei freier Bestäubung
[4] = in vivo; details: mouse
[5] = system: Sonnenblume Sorte Peredovik; experiment: Field trial of pollen sterilisation, sunflower Peredovik; assay type: in vivo; details: 0,2% aqueous emulsion, 1,2 kg/ke (so in the source); for Ansetzen von Achänen bei freier Bestäubung in % / Ansetzen von Achänen im Isolator bei der Bestäubung mit dem Pollengemisch in %: V. or VI. period
Text: Pflanzen der Sonnenblume Sorte Peredovik werden in der V. oder VI.
Der Verbrauch an Sterilisationsmittel beträgt 1,2 kg/ke.

[6] = system: Sonnenblume Linie VK 119; experiment: Field trial of pollen sterilisation, sunflower line VK 119; details: 0,2% aqueous emulsion, 1,2 kg/ha
[7] = system: Hirse Sorte K-9693 Kormovoe 1; experiment: Field trial of gametocidal activity, millet K-9693 Kormovoe 1; details: 1% aqueous emulsion, 10 kg/ha; for Anzahl von Körnern der Rispe bei freier Bestäubung / Anzahl von Körnern der Rispe im Isolator / Prozentsatz der Sterilität: V. or VI. period; for Prozentsatz des Ansetzens bei freier Bestäubung: control = 100
[8] = system: Roggen Sorte Voskhod 2; experiment: Field trial of gametocidal activity, diploid rye Voskhod 2; assay type: in vivo; details: 1% aqueous emulsion, 8 kg/ha; for Anzahl von Körnern der Ähre bei freier Bestäubung / Anzahl von Körnern der Ähre im Isolator / Prozentsatz der Sterilität: V. or VI. period; for Prozentsatz des Ansetzens bei freier Bestäubung: control = 100
[9] = system: Hirse Sorte Mironovskoe 94; experiment: Field trial of gametocidal activity, millet Mironovskoe 94; assay type: in vivo; details: 1% aqueous emulsion, 10 kg/ha; for response vs control in vivo at 10000 g/ha: control = 100, read-out: Prozentsatz des Ansetzens bei freier Bestäubung
[10] = system: Sommerweizen Sorte Moskovskaya 35; experiment: Field trial of gametocidal activity, spring wheat; assay type: in vivo, Weizen; details: 1% aqueous emulsion; for Anzahl von Körnern der Ähre bei freier Bestäubung / Anzahl von Körnern der Ähre im Isolator / percent sterility at 10000 g/ha: V. period; for percent sterility at 10000 g/ha: read-out: Prozentsatz der Sterilität
[11] = system: Diploider Roggen Sorte Gibrid 340/65; experiment: Field trial of gametocidal activity, diploid rye Gibrid 340/65; details: Gibrid 340/65 (text: 312/65), 1% aqueous emulsion, 10 kg/ha; for Anzahl von Körnern der Ähre bei freier Bestäubung / Anzahl von Körnern der Ähre im Isolator / Prozentsatz der Sterilität: V. and VI. periods; for Prozentsatz des Ansetzens bei freier Bestäubung: control = 100
[12] = system: Diploider Roggen Sorte Kharkovskaya 55; experiment: Field trial of gametocidal activity, diploid rye Kharkovskaya 55; details: 1% aqueous emulsion, 6 kg/ha; for Anzahl von Körnern der Ähre bei freier Bestäubung / Anzahl von Körnern der Ähre im Isolator / Prozentsatz der Sterilität: V. and VI. periods; for Prozentsatz des Ansetzens bei freier Bestäubung: control = 100
[13] = V. or VI. period, listed as Beispiel 7I
[14] = read-out: Prozentsatz des Ansetzens bei freier Bestäubung, Chulpan, control = 100
[15] = V. or VI. period, read-out: Prozentsatz der Sterilität
[16] = control = 100, read-out: Prozentsatz des Ansetzens bei freier Bestäubung

## CCC(CO)(CO)CBr [Beispiel 53, monobromsubstituiertem Etriol]
[1]; Chulpan
  Anzahl von Körnern der Ähre bei freier Bestäubung: 55,8
  Anzahl von Körnern der Ähre im Isolator: 4,8
  percent sterility at 10000 g/ha: 91.8%
[1]; Chulpan, control = 100, read-out: Prozentsatz des Ansetzens bei freier Bestäubung
  response vs control in vivo at 10000 g/ha: 98.4%

## O=C(O)c1ccccc1F [Beispiel I4, Monoäthanolaminsalz der Orthofluorbenzoesäure]
[2]
  Anzahl von Körnern der Ähre bei freier Bestäubung: 36,2
  Anzahl von Körnern der Ähre im Isolator: 5,3
  pest or weed control at 20000 g/ha: 85.9%
  response vs control in vivo at 20000 g/ha: 89.3%
[1]; Chulpan, listed as Beispiel 56
  Anzahl von Körnern der Ähre bei freier Bestäubung: 56,2
  Anzahl von Körnern der Ähre im Isolator: 0,1
[1]; Chulpan, control = 100, listed as Beispiel 56
  Prozentsatz des Ansetzens bei freier Bestäubung: 99,1%
[3]; [13]
  Anzahl von Körnern der Ähre bei freier Bestäubung: 43,5
  Anzahl von Körnern der Ähre im Isolator: 0,0
[3]; control = 100, listed as Beispiel 7I
  Prozentsatz des Ansetzens bei freier Bestäubung: 98,2%
[4]; LD50, weisse Mäuse
  LD50: 700 mg/kg

## Nc1ccc(O)c(C(=O)O)c1 [Beispiel 51, Äthanolaminsalz der 5-Aminosalizylsäure]
[1]; Chulpan
  Anzahl von Körnern der Ähre bei freier Bestäubung: 55,6
  Anzahl von Körnern der Ähre im Isolator: 2,1
  percent sterility at 10000 g/ha: 96%
[1]; [14]
  response vs control in vivo at 10000 g/ha: 92.8%
[3]; V. or VI. period
  Anzahl von Körnern der Ähre im Isolator: I,I
[3]; [15]
  percent sterility at 10000 g/ha: 97.3%
[3]
  response vs control in vivo at 10000 g/ha: 99.5%
[4]; LD50, weisse Mäuse
  LD50: 2400 mg/kg

## OCCCl [Beispiel 45, 2-Chloräthanol]
[1]; Chulpan
  Anzahl von Körnern der Ähre bei freier Bestäubung: 80,2
  Anzahl von Körnern der Ähre im Isolator: 2,2
[1]
  pest or weed control at 10000 g/ha: 95.8%
[1]; [14]
  response vs control in vivo at 10000 g/ha: 88.5%
[3]; V. or VI. period
  Anzahl von Körnern der Ähre bei freier Bestäubung: 42,2
  Anzahl von Körnern der Ähre im Isolator: 0,0
[3]
  response vs control in vivo at 10000 g/ha: 95.3%
[5]
  Pollensterilität in %: 100%
  Ansetzen von Achänen bei freier Bestäubung in %: 83,9%
  Ansetzen von Achänen im Isolator bei der Bestäubung mit dem Pollengemisch in %: 0,0%
[4]
  LD50: 580 mg/kg
[6]
  Ansetzen von Achänen bei freier Bestäubung in %: 83,5%
  Ansetzen von Achänen im Isolator bei der Bestäubung mit dem Pollengemisch in %: 0,0%
  Pollensterilität in %: 100%
[7]
  Anzahl von Körnern der Rispe bei freier Bestäubung: 130,5
  Anzahl von Körnern der Rispe im Isolator: 0,0
  Prozentsatz der Sterilität: 100%
  Prozentsatz des Ansetzens bei freier Bestäubung: 89,0%

## ClCC1CO1 (centres unmarked) [Beispiel II, 3-Chlor-1,2-epoxypropan]
[2]
  pest or weed control at 20000 g/ha: 99.8%
  response vs control in vivo at 20000 g/ha: 77.5%
[8]
  Anzahl von Körnern der Ähre bei freier Bestäubung: 51,7
  Anzahl von Körnern der Ähre im Isolator: 0,6
  Prozentsatz der Sterilität: 98,8%
  Prozentsatz des Ansetzens bei freier Bestäubung: 94,7%
[1]; Chulpan
  Anzahl von Körnern der Ähre bei freier Bestäubung: 48,9
  Anzahl von Körnern der Ähre im Isolator: 0,0
[1]
  pest or weed control at 10000 g/ha: 100%
[1]; [14]
  response vs control in vivo at 10000 g/ha: 86.2%
[9]; V. or VI. period
  Anzahl von Körnern der Rispe bei freier Bestäubung: 312,3
  Anzahl von Körnern der Rispe im Isolator: 0,0
[9]; [15]
  pest or weed control at 10000 g/ha: 100%
[9]
  response vs control in vivo at 10000 g/ha: 82.2%
[5]
  Pollensterilität in %: 100%
  Ansetzen von Achänen bei freier Bestäubung in %: 82,3%
  Ansetzen von Achänen im Isolator bei der Bestäubung mit dem Pollengemisch in %: 0,0%
[4]
  LD50: 238 mg/kg
[6]
  Ansetzen von Achänen bei freier Bestäubung in %: 85,0%
  Ansetzen von Achänen im Isolator bei der Bestäubung mit dem Pollengemisch in %: 0,0%
  Pollensterilität in %: 100%

## O=C(COc1ccc(F)cc1)OCCCl [Beispiel I, β-Chloräthylester der 4-Fluorphenoxyessigsäure]
[2]
  Anzahl von Körnern der Ähre bei freier Bestäubung: 30,4
  percent sterility at 20000 g/ha: 99.8%
[10]; 10 kg/ha
  Anzahl von Körnern der Ähre bei freier Bestäubung: 23,8
  Anzahl von Körnern der Ähre im Isolator: 0,4
  percent sterility at 10000 g/ha: 98.5%
[10]; [16]
  response vs control in vivo: 86.5%
[4]; LD50, weisse Mäuse
  LD50: 400 mg/kg
[11]
  Anzahl von Körnern der Ähre bei freier Bestäubung: 45,6
  Anzahl von Körnern der Ähre im Isolator: 0,0
  Prozentsatz der Sterilität: 100%
  Prozentsatz des Ansetzens bei freier Bestäubung: 84,4%
[12]
  Anzahl von Körnern der Ähre bei freier Bestäubung: 42,7
  Anzahl von Körnern der Ähre im Isolator: 0,0
  Prozentsatz der Sterilität: 100%
  Prozentsatz des Ansetzens bei freier Bestäubung: 94,7%

## OCC(O)CSc1cccc(Cl)c1 (centres unmarked) [Beispiel 8, 3-(3'-Chlorphenylthio)-propandiol-1,2]
[2]
  Anzahl von Körnern der Ähre bei freier Bestäubung: 32,7
  Anzahl von Körnern der Ähre im Isolator: 2,6
  response vs control in vivo at 20000 g/ha: 80.7%
[10]; 10 kg/ha
  Anzahl von Körnern der Ähre bei freier Bestäubung: 24,6
  Anzahl von Körnern der Ähre im Isolator: 0,8
  percent sterility at 10000 g/ha: 99.7%
[10]; [16]
  response vs control in vivo: 89.5%
[1]; Chulpan
  Anzahl von Körnern der Ähre bei freier Bestäubung: 52,1
  Anzahl von Körnern der Ähre im Isolator: 0,0
  percent sterility at 10000 g/ha: 100%
[1]; [14]
  response vs control in vivo at 10000 g/ha: 91.9%
[4]; LD50, weisse Mäuse
  LD50: 400 mg/kg
[7]
  Anzahl von Körnern der Rispe bei freier Bestäubung: 100,8
  Anzahl von Körnern der Rispe im Isolator: 0,0
  Prozentsatz der Sterilität: 100%
  Prozentsatz des Ansetzens bei freier Bestäubung: 68,7%

## OCC(O)COc1ccc(Cl)cc1Cl (centres unmarked) [Beispiel 6, 3-(2',4'-Dichlorphenoxy)-propandiol-I,2]
[2]
  Anzahl von Körnern der Ähre bei freier Bestäubung: 35,0
  Anzahl von Körnern der Ähre im Isolator: 0,8
  percent sterility at 20000 g/ha: 97.9%
  response vs control in vivo at 20000 g/ha: 86.4%
[10]; 10 kg/ha
  Anzahl von Körnern der Ähre bei freier Bestäubung: 26,0
  Anzahl von Körnern der Ähre im Isolator: 0,1
  percent sterility at 10000 g/ha: 99.9%
[10]; 10 kg/ha, control = 100, read-out: Prozentsatz des Ansetzens bei freier Bestäubung
  response vs control in vivo at 10000 g/ha: 94.5%
[12]
  Anzahl von Körnern der Ähre bei freier Bestäubung: 41,6
  Anzahl von Körnern der Ähre im Isolator: 0,0
  Prozentsatz der Sterilität: 100%
  Prozentsatz des Ansetzens bei freier Bestäubung: 90,2%

## O=[N+]([O-])c1ccc(OCC(O)CO)cc1 (centres unmarked) [Beispiel 9, 3-(4'-Nitrophenoxy)-propandiol-I,2]
[2]
  Anzahl von Körnern der Ähre bei freier Bestäubung: 34,0
  Anzahl von Körnern der Ähre im Isolator: 4,8
  percent sterility at 20000 g/ha: 85.2%
  response vs control in vivo at 20000 g/ha: 83.9%
[1]; Chulpan
  Anzahl von Körnern der Ähre bei freier Bestäubung: 51,7
  Anzahl von Körnern der Ähre im Isolator: 0,7
  percent sterility at 10000 g/ha: 98.7%
[1]; [14]
  response vs control in vivo at 10000 g/ha: 91.2%
[3]; V. or VI. period
  Anzahl von Körnern der Ähre bei freier Bestäubung: 39,7
  Anzahl von Körnern der Ähre im Isolator: 0,0
[3]
  response vs control in vivo at 10000 g/ha: 89.6%
[9]; V. or VI. period
  Anzahl von Körnern der Rispe bei freier Bestäubung: 311,6
  Anzahl von Körnern der Rispe im Isolator: 0,0
[9]; [15]
  percent pollen sterility at 10000 g/ha: 100%
[9]
  response vs control in vivo at 10000 g/ha: 82.1%
[4]; LD50, weisse Mäuse
  LD50: 100 to 600 mg/kg
[11]
  Anzahl von Körnern der Ähre bei freier Bestäubung: 45,0
  Anzahl von Körnern der Ähre im Isolator: 0,0
  Prozentsatz der Sterilität: 100%
  Prozentsatz des Ansetzens bei freier Bestäubung: 84,1%

## O=C(COc1cc(F)c(Cl)cc1Cl)OCCCl [Beispiel I0, β -Chloräthylester der 2,4-Dichlor-5-fluornhenoxyessig-säure]
[2]
  Anzahl von Körnern der Ähre im Isolator: 0,6
  response vs control in vivo at 20000 g/ha: 74.3%
[4]; LD50, weisse Mäuse
  LD50: 500 mg/kg

## Äthanolaminsalz der Tetraphthalsäure [Beispiel 34]
[8]
  Anzahl von Körnern der Ähre bei freier Bestäubung: 54,0
  Anzahl von Körnern der Ähre im Isolator: 1,2
  Prozentsatz der Sterilität: 97,6%
  Prozentsatz des Ansetzens bei freier Bestäubung: 98,9%

## Nc1ccc(C(=O)O)cc1 [Beispiel 38, Äthanolaminsalz der p-Aminobenzoesäure]
[4]; LD50, weisse Mäuse
  LD50: 2850 mg/kg
[11]
  Anzahl von Körnern der Ähre bei freier Bestäubung: 52,8
  Anzahl von Körnern der Ähre im Isolator: 3,2
  Prozentsatz der Sterilität: 93,4%
  Prozentsatz des Ansetzens bei freier Bestäubung: 97,8%
